According to US10865216B2, “Tricyclic Gyrase inhibitors” (MERCK SHARP & DOHME CORP., priority 2012, dated 2020):
Converted amounts (≈) assume the structure as drawn.

Legend:
[1] = test system: S. aureus ATCC 13709; test: MIC, S. aureus ATCC 13709; assay type: cell-based; settings: for MIC Sa: Table 18, Sa; for SA MIC: Table 11, compounds wherein L = CH2; for MIC: Staphylococcus aureus, ATCC13709, Table 16, new R4 substituents, read-out: SA MIC
[2] = test system: E. coli ATCC 25922; test: MIC, E. coli ATCC 25922; assay type: cell-based; settings: for MIC Ec: Table 18, Ec; for EC8 MIC: Table 11, L = CH2; for EC8 MIC / MIC: EC8 not defined; for MIC: Escherichia coli, ATCC25922, Table 16, new R4 substituents, read-out: EC8 MIC

Row | MIC Sa [1] | MIC Ec [2] | Structure (SMILES) | other results
1 | ≤ 0.5 µg/mL | ≤ 0.5 µg/mL | CNc1cc(F)cc2c1[nH]c1nc(Oc3cnc(C)nc3)nc(N3CC4CCC4(N)C3)c12 (stereo not shown) [Compound 10.65] | 
2 | ≤ 0.5 µg/mL | ≤ 0.5 µg/mL | CNc1cc(F)c(Cl)c2c1[nH]c1nc(Oc3cnc(C)nc3)nc(N3CC4(CC[C@H]4N)C3)c12 [Compound 10.66] | 
3 | ≤ 0.5 µg/mL | ≤ 0.5 µg/mL | CNc1cc(F)c(Br)c2c1[nH]c1nc(Oc3cnc(C)nc3)nc(N3C[C@H]4C[C@@H]3C[C@H]4N)c12 [Compound 10.68] | 
4 | ≤ 0.5 µg/mL | ≤ 0.5 µg/mL | CNc1cc(F)c(C#N)c2c1[nH]c1nc(Oc3cnc(C)nc3)nc(N3C[C@H]4C[C@@H]3C[C@H]4N)c12 [Compound 10.69] | 
5 | ≤ 0.5 µg/mL | ≤ 0.5 µg/mL | CNc1cc(F)c(C#N)c2c1[nH]c1nc(Oc3cnc(C)nc3)nc(N3C[C@H]4CCN[C@H]4C3)c12 [Compound 10.70] | 
6 | ≤ 0.5 µg/mL | ≤ 0.5 µg/mL | CNc1cc(F)c(C#N)c2c1[nH]c1nc(Oc3cnc(C)nc3)nc(N3CC4(CC[C@H]4N)C3)c12 [Compound 10.71] | 
7 | ≤ 0.5 µg/mL | ≤ 0.5 µg/mL | CNc1cc(F)cc2c1[nH]c1nc(Oc3cnc4c(c3)C(=O)OC4(C)C)nc(N3C[C@H]4C[C@@H]3C[C@H]4N)c12 [Compound 10.72] | 
8 | ≤ 0.5 µg/mL | ≤ 0.5 µg/mL | CNc1cc(F)cc2c1[nH]c1nc(Oc3cnc4c(c3)C(=O)OC4(C)C)nc(N3CC4C[C@@H](N)C4C3)c12 (stereo partly shown) [Compound 10.73] | 
9 | ≤ 0.5 µg/mL | 1 µg/mL (≈ 2.09 µM) | CNc1cc(F)cc2c1[nH]c1nc(Oc3cnc(C(C)O)nc3)nc(N3CC4(CC[C@]4(C)N)C3)c12 (stereo partly shown) [Compound 10.74] | 
10 | ≤ 0.5 µg/mL | 1 µg/mL (≈ 2.17 µM) | CNc1cc(F)cc2c1[nH]c1nc(Oc3cnc(C)nc3)nc(N3CCC(N)(CCC#N)C3)c12 (stereo not shown) [Compound 10.75] | 
11 | ≤ 0.5 µg/mL | ≤ 0.5 µg/mL | CNc1cc(F)cc2c1[nH]c1nc(Oc3ccc([C@@H](C)O)nc3)nc(N3CC4[C@H](N)CC4(C)C3)c12 (stereo partly shown) [Compound 10.76] | 
12 | 1 µg/mL (≈ 2.09 µM) | 4 µg/mL (≈ 8.36 µM) | CNc1cc(F)cc2c1[nH]c1nc(Oc3cnc(C(C)O)nc3)nc(N3C[C@H]4C[C@@H]3[C@H](C)[C@H]4N)c12 (stereo partly shown) [Compound 10.78] | 
13 | ≤ 0.5 µg/mL | ≤ 0.5 µg/mL | CNc1cc(F)cc2c1[nH]c1nc(Oc3ccc(C)nc3)nc(N3CC4CC(C)NC4C3)c12 (stereo not shown) [Compound 10.79] | 
14 | 0.06 µg/mL (≈ 0.13 µM) | 2 µg/mL (≈ 4.32 µM) | CNc1cc(F)cc2c1[nH]c1nc(Oc3cnc(C)nc3)nc(N3CCC4(CC3)CC4CN)c12 (stereo not shown) [Compound 10.80] | 
15 | ≤ 0.5 µg/mL | 0.5 µg/mL (≈ 1.01 µM) | CNc1cc(F)c(F)c2c1[nH]c1nc(Oc3cnc(C(C)O)nc3)nc(N3CC4(CC[C@]4(C)N)C3)c12 (stereo partly shown) [Compound 10.81] | 
16 | ≤ 0.5 µg/mL | 1 µg/mL (≈ 1.99 µM) | CNc1cc(F)cc2c1[nH]c1nc(Oc3cnc4c(c3)C(=O)N(C)C4C)nc(N3CC4(CC[C@H]4N)C3)c12 (stereo partly shown) [Compound 10.83] | 
17 | ≤ 0.5 µg/mL | ≤ 0.5 µg/mL | C=Cc1cc(F)cc2c1[nH]c1nc(Oc3cnc(C)nc3)nc(N3C[C@H]4C[C@@H]3C[C@H]4N)c12 [Compound 10.84] | 
18 | ≤ 0.5 µg/mL | ≤ 0.5 µg/mL | CNc1cc(F)c(Cl)c2c1[nH]c1nc(Oc3cnc4ccnn4c3)nc(N3C[C@H]4C[C@@H]3C[C@H]4N)c12 [Compound 10.85] | 
19 | ≤ 0.5 µg/mL | 0.25 µg/mL (≈ 0.506 µM) | CNc1cc(F)c(Cl)c2c1[nH]c1nc(Oc3cnc4ccnn4c3)nc(N3C[C@H]4C[C@@H](N)[C@H]4C3)c12 [Compound 10.86] | 
20 | ≤ 0.5 µg/mL | ≤ 0.5 µg/mL | CNc1cc(F)c(Cl)c2c1[nH]c1nc(Oc3cnc([C@@H](C)O)nc3)nc(N3C[C@H]4C[C@@H]3C[C@H]4N)c12 [Compound 10.87] | 
21 | ≤ 0.5 µg/mL | ≤ 0.5 µg/mL | CNc1cc(F)c(Cl)c2c1[nH]c1nc(Oc3cnc([C@@H](C)O)nc3)nc(N3CC4(CC[C@@H]4N)C3)c12 [Compound 10.88] | 
22 | ≤ 0.5 µg/mL | 2 µg/mL (≈ 4.61 µM) | CCc1cc(F)cc2c1[nH]c1nc(Oc3cnc(C)nc3)nc(N3C[C@H]4C[C@@H]3C[C@H]4N)c12 [Compound 10.89] | 
23 | ≤ 0.5 µg/mL | ≤ 0.5 µg/mL | CNc1cc(F)c(Cl)c2c1[nH]c1nc(Oc3cnc4ccnn4c3)nc(N3CC4(CC[C@]4(C)N)C3)c12 [Compound 10.90] | 
24 | 4 µg/mL (≈ 8.45 µM) | > 16 µg/mL | CNc1cc(F)cc2c1[nH]c1nc(Oc3cnc(C(C)C#N)nc3)nc(N3C[C@H]4C[C@@H]3C[C@H]4N)c12 (stereo partly shown) [Compound 10.91] | 
25 | ≤ 0.5 µg/mL | ≤ 0.5 µg/mL | CNc1cc(F)c(F)c2c1[nH]c1nc(Oc3cnc(C)nc3)nc(N3CC[C@]4(CC[C@H]4N)C3)c12 [Compound 10.92] | 
26 | ≤ 0.5 µg/mL | ≤ 0.5 µg/mL | CNc1cc(F)c(F)c2c1[nH]c1nc(Oc3cnc([C@H](C)O)nc3)nc(N3CC[C@]4(CC[C@H]4N)C3)c12 [Compound 10.93] | 
27 | ≤ 0.5 µg/mL | ≤ 0.5 µg/mL | CNc1cc(F)c(Cl)c2c1[nH]c1nc(Oc3cnc4ccnn4c3)nc(N3CC4(CC[C@@H]4N)C3)c12 [Compound 10.94] | 
28 | ≤ 0.5 µg/mL | ≤ 0.5 µg/mL | CNc1cc(F)c(F)c2c1[nH]c1nc(Oc3cnc(C(C)C#N)nc3)nc(N3C[C@H]4C[C@@H]3C[C@H]4N)c12 (stereo partly shown) [Compound 10.95] | 

Row | MIC Sa [1] | MIC Ec [2] | Structure (SMILES) | other results
29 | ≤ 0.5 µg/mL | ≤ 0.5 µg/mL | CNc1cc(F)cc2c1[nH]c1nc(Oc3ccc4cncnc4c3)nc(N3C[C@H]4C[C@@H]3C[C@H]4N)c12 [Compound 10.96] | 
30 | ≤ 0.5 µg/mL | 2 µg/mL (≈ 4.25 µM) | CNc1cc(F)cc2c1[nH]c1nc(Oc3ccc4cncnc4c3)nc(N3C[C@H]4C[C@@H]3C[C@H]4N)c12 [Compound 10.97] | 
31 | ≤ 0.5 µg/mL | ≤ 0.5 µg/mL | CNc1cc(F)cc2c1[nH]c1nc(Oc3cnc(N(C)N)nc3)nc(N3C[C@H]4C[C@@H]3C[C@H]4N)c12 [Compound 10.98] | 
32 | ≤ 0.5 µg/mL | ≤ 0.5 µg/mL | CNc1cc(F)cc2c1[nH]c1nc(Oc3cnc(C)nc3)nc(N3CC4CC(OS(N)(=O)=O)C4C3)c12 (stereo not shown) [Compound 10.99] | 
33 | ≤ 0.5 µg/mL | ≤ 0.5 µg/mL | CNc1cc(F)cc2c1[nH]c1nc(Oc3cnc(C(C)O)nc3)nc(N(C)C)c12 (stereo not shown) [Compound 10.101] | 
34 | ≤ 0.5 µg/mL | ≤ 0.5 µg/mL | CNc1ncc(Oc2nc(N3CCC4(CC[C@H]4N)C3)c3c(n2)[nH]c2c(NC)cc(F)cc23)cn1 (stereo partly shown) [Compound 10.102] | 
35 | ≤ 0.5 µg/mL | ≤ 0.5 µg/mL | CNc1cc(F)c(F)c2c1[nH]c1nc(Oc3cnc(C(C)O)nc3)nc(N3CC4(CCCC4N)C3)c12 (stereo not shown) [Compound 10.103] | 
36 | ≤ 0.5 µg/mL | 8 µg/mL (≈ 16.9 µM) | CNc1cc(F)cc2c1[nH]c1nc(Oc3cnc(C)nc3)nc(N3CCC(S(N)(=O)=O)C3)c12 (stereo not shown) [Compound 10.104] | 
37 | ≤ 0.5 µg/mL | 1 µg/mL (≈ 2.16 µM) | CNc1cc(F)cc2c1[nH]c1nc(Oc3cnc(CN)nc3)nc(N3CCC4(CC[C@H]4N)C3)c12 (stereo partly shown) [Compound 10.105] | 
38 | ≤ 0.5 µg/mL | 2 µg/mL (≈ 4.08 µM) | CNc1cc(F)c(F)c2c1[nH]c1nc(Oc3cnc(C)nc3)nc(N3CCC(S(N)(=O)=O)C3)c12 (stereo not shown) [Compound 10.106] | 
39 | ≤ 0.5 µg/mL | ≤ 0.5 µg/mL | CNc1cc(F)c(F)c2c1[nH]c1nc(Oc3cnc(C)nc3)nc(N3CCOCC3)c12 [Compound 10.107] | 
40 | ≤ 0.5 µg/mL | > 16 µg/mL | CNc1cc(F)cc2c1[nH]c1nc(Oc3cnc4c(c3)C(=O)N(C)C4O)nc(N3C[C@H]4C[C@@H]3C[C@H]4N)c12 (stereo partly shown) [Compound 10.108] | 
41 | ≤ 0.5 µg/mL | ≤ 0.5 µg/mL | CNc1cc(F)cc2c1[nH]c1nc(Oc3cnc4cc[s+]([O-])c4c3)nc(N3C[C@H]4C[C@@H]3C[C@H]4N)c12 (stereo partly shown) [Compound 10.109] | 
42 | ≤ 0.5 µg/mL | ≤ 0.5 µg/mL | C=Cc1cc(F)c(F)c2c1[nH]c1nc(Oc3cnc(C)nc3)nc(N3C[C@H]4C[C@@H]3C[C@H]4N)c12 [Compound 10.110] | 
43 | ≤ 0.5 µg/mL | ≤ 0.5 µg/mL | CNc1cc(F)cc2c1[nH]c1nc(Oc3cnc4cc[s+]([O-])c4c3)nc(N3CC4(CC[C@H]4N)C3)c12 (stereo partly shown) [Compound 10.111] | 
44 | ≤ 0.5 µg/mL | ≤ 0.5 µg/mL | CNc1cc(F)c(F)c2c1[nH]c1nc(Oc3cnc(C(C)O)nc3)nc(N3CCC4(CCCC4N)C3)c12 (stereo not shown) [Compound 10.112] | 
45 | ≤ 0.5 µg/mL | ≤ 0.5 µg/mL | CNc1cc(F)cc2c1[nH]c1nc(Oc3cnc(C)nc3)nc(N3CCC(C(C)=O)C3)c12 (stereo not shown) [Compound 10.113] | 
46 | ≤ 0.5 µg/mL | ≤ 0.5 µg/mL | CNc1cc(F)cc2c1[nH]c1nc(Oc3cnc(C)nc3)nc(N3C[C@H]4C[C@@H]3C[C@H]4NCCO)c12 [Compound 10.114] | 
47 | ≤ 0.5 µg/mL | 1 µg/mL (≈ 1.91 µM) | CNc1cc(F)cc2c1[nH]c1nc(Oc3cnc(C)nc3)nc(N3C[C@H]4C[C@@H]3C[C@H]4N(CCO)CCO)c12 [Compound 10.115] | 
48 | ≤ 0.5 µg/mL | ≤ 0.5 µg/mL | CNc1cc(F)cc2c1[nH]c1nc(Oc3cnc([C@@H](C)O)nc3)nc(N3CCOCC3)c12 [Compound 10.116] | 
49 | ≤ 0.5 µg/mL | ≤ 0.5 µg/mL | CNc1cc(F)cc2c1[nH]c1nc(Oc3cnc(C(C)OC)nc3)nc(N3CC4CC4C3)c12 (stereo not shown) [Compound 10.117] | 
50 |  |  | CNc1cc(F)cc2c1[nH]c1nc(Cc3cnn(C)c3)nc(N3C[C@H]4C[C@@H]3C[C@H]4N)c12 [drawing 1734] | SA MIC [1]: 1 µg/mL; EC8 MIC [2]: 8 µg/mL
51 |  |  | CNc1cc(F)cc2c1[nH]c1nc(Cc3cnc(C)nc3)nc(N3CC4C(N)C4C3)c12 (stereo not shown) [drawing 1736] | SA MIC [1]: ≤ 0.5 µg/mL; EC8 MIC [2]: 0.25 µg/mL
52 |  |  | CNc1cc(F)cc2c1[nH]c1nc(Cc3cnc(C)nc3)nc(N3CC4C(N)C4C3)c12 (stereo not shown) [drawing 1737] | SA MIC [1]: ≤ 0.5 µg/mL; EC8 MIC [2]: 0.25 µg/mL
53 |  |  | CNc1cc(F)cc2c1[nH]c1nc(Oc3cnc(C)nc3)nc(N3CC(N)C(C(=O)NCC(C)O)C3)c12 (stereo not shown) [drawing 1822] | MIC [1]: 8 µg/mL (≈ 15.7 µM); MIC [2]: > 16 µg/mL
54 |  |  | CNc1cc(F)cc2c1[nH]c1nc(Oc3cnc(C)nc3)nc(N3CC(N)C(C(=O)NCCN4CCOCC4)C3)c12 (stereo not shown) [drawing 1823] | MIC [1]: 16 µg/mL (≈ 28.3 µM); MIC [2]: > 16 µg/mL
55 |  |  | CNc1cc(F)cc2c1[nH]c1nc(Oc3cnc(C)nc3)nc(N3CC(N)C(C(F)(F)F)C3)c12 (stereo not shown) [drawing 1824] | MIC [1]: ≤ 0.5 µg/mL; MIC [2]: > 16 µg/mL

Row | Structure (SMILES) | MIC Sa [1] | MIC Ec [2] | other results
56 | CNc1cc(F)cc2c1[nH]c1nc(Oc3cnc(C(C)O)nc3)nc(N3CC4CC(C3)C4N)c12 (stereo not shown) [Compound 10.82] | 0.13 µg/mL (≈ 0.28 µM) | 0.5 µg/mL (≈ 1.08 µM) | 
